Test systems include HCT-15 colon; HOP-92 NSCLC; NCI-H522 lung; OVCAR-8 ovarian; RXF 393 renal; SF-295 CNS; SK-MEL-28 melanoma; SK-MEL-5 melanoma; SK-OV-3 ovarian; OVCAR-4 ovarian.
Holding throughout (test): DTP human tumour cell line panel, 48 h

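Grown in 96-well plates, cells were treated for 48 hours with each compound at five concentrations. Insufficient inhibition: endpoint recorded as highest concentration tested. At the TGI there is no net growth.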

Regarding `CC[C@@]12C=CC(=S)N(CCSc3ccccc3)[C@@H]1c1c(n(S(=O)(=O)c3ccc(OC)cc3)c3ccccc13)CC2`, the TGI with HCT-15 colon, in the assay with HOP-92 NSCLC, in the assay with NCI-H522 lung, in the assay with OVCAR-8 ovarian, in the assay with RXF 393 renal and with SF-295 CNS was above 100 µM in each case. Further, the concentration for total growth inhibition (TGI) in the assay on SK-MEL-28 melanoma, in the assay on SK-MEL-5 melanoma and with SK-OV-3 ovarian was above 100 µM in each case.

For the molecule `CC(=O)NC(Cc1ccc(OP(=O)(OCc2ccc([N+](=O)[O-])o2)N(C)CCCCCl)cc1)C(=O)NC(C)c1ccc(OCC2CCCCC2)c(C(N)=O)c1` (stereo not given), the concentration for total growth inhibition (TGI) in the assay with HCT-15 colon is above 100 µM; in the assay on NCI-H522 lung, 12 µM; in the assay with OVCAR-4 ovarian it was 11.9 µM; in the assay with OVCAR-8 ovarian, 21.8 µM; in the assay on RXF 393 renal, 5.68 µM; with SF-295 CNS, 16.9 µM. The values for the TGI in the assay on SK-MEL-28 melanoma, in the assay on SK-MEL-5 melanoma and in the assay on SK-OV-3 ovarian were 4.08 µM, 3.08 µM and 37.3 µM, respectively.

`O=C1C(NCCN2CCOCC2)=C(Cl)C(=O)c2ncccc21`: the TGI in the assay on HCT-15 colon was 1.52 µM; in the assay with HOP-92 NSCLC it was 5.76 µM; in the assay with OVCAR-8 ovarian it was 1.9 µM; in the assay with RXF 393 renal it was 1.4 µM; with SF-295 CNS, 2.77 µM; in the assay on SK-MEL-28 melanoma, 2.99 µM. Besides, the TGI in the assay with SK-MEL-5 melanoma is 1.1 µM; in the assay on SK-OV-3 ovarian it was 2.73 µM.

As for `COc1ccc(Oc2nc(C#CC(C)(C)O)nc(Oc3ccc(OC)cc3)n2)cc1`, the total growth inhibition concentration (TGI) in the assay on HCT-15 colon turned out to be 2.95 µM; with NCI-H522 lung, 9.36 µM; in the assay with OVCAR-8 ovarian, 13.7 µM; in the assay on RXF 393 renal it was 2.85 µM; in the assay on SF-295 CNS, 31.2 µM; in the assay on SK-MEL-28 melanoma it was 18.9 µM. Also, the values for the TGI in the assay on SK-MEL-5 melanoma and in the assay on SK-OV-3 ovarian were 27.8 µM and 36 µM, respectively.

`CCN1CCC(O)(c2ccc(Oc3ccc(C)cc3)cc2)C(C(=O)c2ccc(Oc3ccc(C)cc3)cc2)C1` (stereo not given): the TGI turned out to be 15.2 µM with HCT-15 colon; 21.7 µM in the assay on HOP-92 NSCLC; 17.3 µM with OVCAR-4 ovarian; 28.2 µM in the assay on OVCAR-8 ovarian; 16.2 µM with RXF 393 renal; 21.4 µM in the assay with SF-295 CNS. Also, the TGI in the assay on SK-MEL-28 melanoma is 23.3 µM; in the assay on SK-MEL-5 melanoma it was 20.4 µM; with SK-OV-3 ovarian, 29.7 µM.

For the molecule `CCSc1nc(N)c2c(-c3ccccc3)c3c(nc2n1)CCC3`, the TGI with HCT-15 colon, in the assay with OVCAR-4 ovarian, in the assay with OVCAR-8 ovarian, in the assay with RXF 393 renal, in the assay with SF-295 CNS and in the assay on SK-MEL-28 melanoma was above 100 µM in each case. The TGI with SK-MEL-5 melanoma and in the assay on SK-OV-3 ovarian was above 100 µM each time.

Turning to `c1ccc(N=C2SC3=NCCN3C2=Nc2ccccc2)cc1`, the TGI in the assay with HCT-15 colon was 61.4 µM; with HOP-92 NSCLC, 60.6 µM; in the assay with NCI-H522 lung, 30.4 µM; in the assay with OVCAR-8 ovarian, above 100 µM; in the assay on RXF 393 renal it was 32.2 µM; with SF-295 CNS, 41.7 µM. Also, the TGI with SK-MEL-28 melanoma is 35 µM; in the assay on SK-MEL-5 melanoma, 28.9 µM; in the assay with SK-OV-3 ovarian it was above 100 µM.

Consider `O=C(OCc1ccccc1)N1CCN(C(=O)OCc2ccccc2)CCN(C(=O)OCc2ccccc2)CCN(C(=O)OCc2ccccc2)CCN(C(=O)OCc2ccccc2)CC1`, for which the TGI with HCT-15 colon, in the assay on HOP-92 NSCLC, in the assay on NCI-H522 lung, in the assay on OVCAR-4 ovarian, in the assay with OVCAR-8 ovarian and with SF-295 CNS was above 100 µM each time. Also, the TGI in the assay on SK-MEL-28 melanoma is above 100 µM; in the assay on SK-MEL-5 melanoma, 33.3 µM; in the assay with SK-OV-3 ovarian it was above 100 µM.

As to `CC1(CC2=C(C(=O)NCCO[Si](C)(C)C(C)(C)C)C3(OCCO3)C2=O)OCCO1`, the TGI is above 100 µM in the assay with HCT-15 colon; above 100 µM with HOP-92 NSCLC; 93.7 µM in the assay on NCI-H522 lung; above 100 µM in the assay on OVCAR-4 ovarian; above 100 µM in the assay on OVCAR-8 ovarian; above 100 µM in the assay on SF-295 CNS. For the same molecule, the TGI in the assay on SK-MEL-28 melanoma, with SK-MEL-5 melanoma and with SK-OV-3 ovarian was above 100 µM in each case.

For `CCOC(=O)CSc1[nH]c(NC(=S)Nc2ccccc2)c(C(N)=O)c1C(N)=O`, the TGI with HCT-15 colon, in the assay with HOP-92 NSCLC, with OVCAR-4 ovarian, in the assay on OVCAR-8 ovarian, with RXF 393 renal and in the assay on SF-295 CNS was above 10 µM throughout. Besides, the TGI in the assay with SK-MEL-28 melanoma, in the assay on SK-MEL-5 melanoma and in the assay with SK-OV-3 ovarian was above 10 µM each time.

For `COc1ccc(/C=N/NC(=O)c2cnc3[nH]c(=O)n(C)c(=O)c3c2)cc1`, the TGI in the assay with HCT-15 colon, in the assay on OVCAR-4 ovarian, in the assay with OVCAR-8 ovarian, in the assay on RXF 393 renal, in the assay with SF-295 CNS and in the assay on SK-MEL-28 melanoma was above 100 µM throughout. Besides, the TGI with SK-MEL-5 melanoma and with SK-OV-3 ovarian was above 100 µM throughout.

`Nn1c(Cc2ccccc2)n[nH]c1=O`: the TGI with HCT-15 colon, in the assay on NCI-H522 lung, in the assay with OVCAR-4 ovarian, in the assay on OVCAR-8 ovarian, with SF-295 CNS and in the assay on SK-MEL-28 melanoma was above 100 µM each time. Moreover, the TGI with SK-MEL-5 melanoma and in the assay on SK-OV-3 ovarian was above 100 µM each time.

On to `CCc1nc2ccc(C(F)(F)F)cc2[nH]c1=O`, for which the TGI in the assay with HCT-15 colon, in the assay with HOP-92 NSCLC, in the assay on OVCAR-4 ovarian, with OVCAR-8 ovarian, in the assay on RXF 393 renal and with SF-295 CNS was above 100 µM in each case. Also, the TGI in the assay with SK-MEL-28 melanoma, in the assay on SK-MEL-5 melanoma and in the assay on SK-OV-3 ovarian was above 100 µM in each case.

As for `CCN(CC)C(=O)N1CN(c2ccccc2)C2(CCN(CCCSc3ccc(F)cc3)CC2)C1=O`, the TGI with HCT-15 colon was 26.4 µM; in the assay on NCI-H522 lung, 30.5 µM; in the assay with OVCAR-4 ovarian, above 100 µM; in the assay on OVCAR-8 ovarian, 54.4 µM; with RXF 393 renal, 29.7 µM; with SF-295 CNS it was 25.1 µM. The TGI stood at 37.1 µM in the assay on SK-MEL-28 melanoma, 12.3 µM in the assay with SK-MEL-5 melanoma and 63 µM in the assay with SK-OV-3 ovarian.

Regarding `Cc1cc2nc(N3C(=O)/C(=C/c4ccc(Cl)cc4)N=C3c3ccccc3)sc2cc1C`, the concentration for total growth inhibition (TGI) is above 100 µM in the assay with HCT-15 colon; 56.5 µM in the assay on HOP-92 NSCLC; 91.8 µM with OVCAR-4 ovarian; above 100 µM in the assay with OVCAR-8 ovarian; 57.9 µM with RXF 393 renal; above 100 µM in the assay with SF-295 CNS. Moreover, the figures for the TGI in the assay on SK-MEL-28 melanoma, in the assay with SK-MEL-5 melanoma and in the assay with SK-OV-3 ovarian were above 100 µM, 43.6 µM and above 100 µM, respectively.

One may read the TGI as the concentration at which net growth stops. The low end stands for more potent growth arrest, the high end for less potent growth arrest.

For the origin of these results see PubChem BioAssay (NCI).
